Consider 21 compounds from PubChem BioAssay (NCI).

Assay in all cases: DTP human tumour cell line panel, 48 h
For assay [1], the system named is SK-MEL-2 melanoma.
In assay [2] the test system is ACHN renal.
The test system of assay [3] is IGROV1 ovarian.
For assay [4], the system named is SNB-75 CNS.
The subject of assay [5] is HCT-15 colon.
Assay [6] has as its system CAKI-1 renal.
The test system of assay [7] is U251 CNS.
Assay [8] relates to MALME-3M melanoma.
Assay [9] concerns NCI-H522 lung.

For orientation: TGI means the concentration giving total growth inhibition. The low end stands for greater sensitivity of the cells, the high end for lower sensitivity of the cells. As a reminder, the GI50 is the concentration at which growth is held to half of that of the control.

Values joined by “and” are separate entries in the source; they are usually repeats but may differ in a detail not shown here. Equal values may be shown once.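 Exposure lasted 48 hours, with cells grown in 96-well plates and compounds tested at five concentrations. The concentration for 50% growth inhibition is given as GI50. TGI denotes the concentration required for complete inhibition of growth.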 Some results are limits rather than exact numbers.

For `Cc1ccc(S(=O)(=O)N[C@H](C(=O)O)c2ccccc2)cc1`, the TGI in assay [1], in assay [2], in assay [3], in assay [4], in assay [5] and in [6] was above 100 µM in each case. For the same compound, the TGI in assay [7], in [8] and in assay [9] was above 100 µM each time.
With `N=C(N)c1ccc(OCc2cccc(COc3ccc(C(=N)N)cc3)c2)cc1`, the GI50 was 24.2 µM in assay [1]; 17.8 µM in assay [2]; 22.2 µM in [3]; 11.3 µM in assay [4]; 17.8 µM in assay [5]; 11.4 µM in assay [6]. Besides, the GI50 is 3.73 µM in [7], 1.77 µM in assay [8] and 16 µM in assay [9]. Also, the TGI in assay [1] is above 100 µM; in assay [2] it was 49.3 µM; in assay [3], above 100 µM; in [4], 31.2 µM; in assay [5], above 100 µM; in assay [6] it was 27.2 µM. Besides, the TGI in [7] is 17.2 µM; in assay [8], 6.01 µM; in assay [9], above 100 µM.
For the compound `NC1=NC(=O)/C(=C/c2ccccc2[N+](=O)[O-])C(N)=N1`, the TGI in assay [1], in assay [2], in [3], in assay [4], in assay [5] and in assay [6] was above 100 µM in each case. Further, the concentration for total growth inhibition (TGI) in assay [7], in [8] and in [9] was above 100 µM in each case.
For `CCOc1ccccc1NC(=O)CC1C(=O)Nc2ccccc2S1=O` (configuration not stated), the TGI in assay [1], in assay [2], in [3], in assay [4], in [5] and in [6] was above 100 µM in each case. Besides, the TGI in [7], in assay [8] and in [9] was above 100 µM in each case.
As for `CC[C@]1(O)CC(OC2CC(N(C)C)C(O)C(C)O2)c2c(cc3c(c2O)C(=O)c2c(O)cccc2C3=O)[C@@H]1C(=O)OC` (some centres not stated), the TGI is 1.82 µM in [1]; 0.963 µM in [2]; 3.21 µM in assay [3]; 1.42 µM in [4]; 2.75 µM in assay [5]; 0.377 µM in assay [6]. Also, the TGI in assay [7] was 5.57 µM; in [8], 1.01 µM; in [9], 1.65 µM.
For `Nc1c(C(=O)c2cccc(CCCN3CCOCC3)c2)cnn1-c1ccc(F)cc1`, the GI50 in assay [1], in assay [2], in [3], in assay [4], in assay [5] and in assay [6] was above 25 µM in each case. Besides, the GI50 in [7], in assay [8] and in assay [9] was above 25 µM in each case. For the same compound, the total growth inhibition concentration (TGI) in [1], in assay [2], in assay [3], in assay [4], in assay [5] and in assay [6] was above 25 µM each time. In addition, the total growth inhibition concentration (TGI) in [7], in [8] and in assay [9] was above 25 µM each time.
As for `CCOC(=O)c1c2c(c(O)c3ccccc3c(O)n(Cc3ccc(OC)cc3)c1C)C(=O)C=CC2=O`, the GI50 in assay [1], in assay [2], in [3], in assay [4], in [5] and in assay [6] was above 100 µM each time. Further, the GI50 in assay [7], in [8] and in [9] was above 100 µM each time. In addition, the total growth inhibition concentration (TGI) in assay [1], in assay [2], in [3], in [4], in assay [5] and in [6] was above 100 µM throughout. Further, the TGI in assay [7], in [8] and in assay [9] was above 100 µM throughout.
For `COc1cc(NS(C)(=O)=O)ccc1Nc1c2ccc([N+](=O)[O-])cc2nc2c(C)cccc12`, the GI50 in assay [1] is 4.07 µM; in assay [2] it was 0.371 µM; in assay [3], 1.45 µM; in assay [4] it was 0.311 µM; in assay [5], 1.38 µM; in assay [6], 1.13 µM. Moreover, the GI50 in assay [7] was 0.214 µM; in [8], 0.717 µM; in assay [9], 1.07 µM. Moreover, the TGI in assay [1] came to 16.1 µM; in [2] it was 4.29 µM; in assay [3] it was 9.36 µM; in assay [4], 7.48 µM; in [5], 4.32 µM; in assay [6], 6.94 µM. The TGI stood at 11.2 µM in assay [7], 7.07 µM in assay [8] and 2.9 µM in assay [9].
`C=C1C(=O)O[C@H]2[C@H]1CC/C(CNC(=O)Cc1c[nH]c3ccccc13)=C\CC[C@@]1(C)O[C@@H]21`: the GI50 in [1] is 6.46 µM; in assay [2], 1.11 µM; in assay [3] it was 0.833 µM; in assay [4] it was 12.8 µM; in assay [5], 1.58 µM; in assay [6], 4.77 µM. Also, the GI50 in [7] is 2.52 µM; in assay [8] it was 3.42 µM; in assay [9] it was 0.365 µM. The TGI in [1] was determined as 22.2 µM; in assay [2], 11.4 µM; in assay [3], 9.06 µM; in assay [4] it was 35.5 µM; in assay [5], 13.1 µM; in [6], 17.1 µM. Further, the TGI in [7] turned out to be 16.5 µM; in [8] it was 7.39 µM; in [9] it was 1.38 µM.
In the case of `O=[N+]([O-])c1ccc(S(=O)(=O)Cc2ccccc2)c([N+](=O)[O-])c1`, the TGI in [1] was determined as 8.62 µM; in [2], 2.92 µM; in assay [3], 6.36 µM; in assay [4], 21.2 µM; in [5], 3.94 µM; in assay [6], 3.2 µM. Moreover, the results for the TGI in assay [7], in assay [8] and in assay [9] were 4.91 µM, 6.2 µM and 2.81 µM, respectively.
With `OC(c1cccc(-n2ccc(C(F)(F)F)n2)c1)c1cnccc1NC1CCCCCC1` (configuration not stated), the GI50 is 2.01 µM in [1]; 1.65 µM in assay [2]; 1.53 µM in assay [3]; 1.36 µM in assay [4]; 1.6 µM in [5]; 1.57 µM in [6]. The results for the GI50 in assay [7], in [8] and in assay [9] were 1.66 µM, 1.71 µM and 1.76 µM, respectively. The total growth inhibition concentration (TGI) in assay [1] was found to be 3.82 µM; in assay [2], 3.02 µM; in assay [3], 2.92 µM; in assay [4], 2.67 µM; in [5], 3.1 µM; in assay [6], 2.96 µM. Also, the concentration for total growth inhibition (TGI) is 3.24 µM in [7], 3.23 µM in [8] and 3.59 µM in assay [9].
For `O=C(O)CCNc1ccccc1C(=O)O`, the TGI in assay [1], in assay [2], in assay [3], in assay [4], in assay [5] and in assay [6] was above 100 µM in each case. Also, the total growth inhibition concentration (TGI) in [7], in [8] and in [9] was above 100 µM in each case.
For `CN1C(=O)CC(c2cccc(C3CC(=O)N(C)C3=O)n2)C1=O` (configuration not stated), the TGI in assay [1], in assay [2], in [3], in [4], in [5] and in assay [6] was above 100 µM throughout. Also, the TGI in assay [7], in [8] and in assay [9] was above 100 µM each time.
Consider `O=C(O)C/C(=C\c1ccco1)C(=O)O`, for which the TGI in [1], in [2], in [3], in assay [4], in assay [5] and in [6] was above 100 µM each time. For the same compound, the concentration for total growth inhibition (TGI) in assay [7], in assay [8] and in [9] was above 100 µM throughout.
For `COc1cccc2c1C(=O)C=CC2=O`, the TGI is 19.8 µM in [1]; 10.5 µM in [2]; 27.2 µM in [3]; 29.9 µM in assay [4]; 24.2 µM in assay [5]; 13 µM in assay [6]. In addition, the TGI in assay [7] turned out to be 13.9 µM; in assay [8] it was 30.6 µM; in [9], 5 µM.
For the compound `Cc1ccccc1NC(=O)C(=O)C(C#N)c1ccc(Cl)cc1` (configuration not stated), the TGI in [1] was above 100 µM; in [2], above 100 µM; in assay [3], above 100 µM; in assay [4] it was above 100 µM; in assay [5], 37.1 µM; in assay [6], above 100 µM. For the same compound, the TGI in assay [7], in assay [8] and in assay [9] was above 100 µM throughout.
With `C[C@@H]1COCCN1c1cc(C2([S@](C)(=N)=O)CC2)nc(-c2ccnc3[nH]ccc23)n1`, the GI50 was 3.74 µM and 1.56 µM in assay [1]; 0.818 µM and 1.65 µM in [2]; 4.24 µM and 2.23 µM in [3]; 2.29 µM and 2.16 µM in assay [4]; 4.34 µM and 4.51 µM in [5]; 6.06 µM and 4.17 µM in [6]. Moreover, the GI50 in [7] was 9.81 µM and 5.08 µM; in assay [8] it was 8.22 µM and 6.49 µM; in assay [9], 8.61 µM and 4.82 µM. Further, the TGI was 26.2 µM and > 10 µM in assay [1]; above 100 µM in assay [2]; 68.6 µM and > 10 µM in [3]; 20.3 µM and > 10 µM in [4]; above 100 µM in assay [5]; 75.9 µM and > 10 µM in assay [6]. The TGI was above 100 µM in assay [7]; 45.1 µM and > 10 µM in [8]; above 84 µM in assay [9].
With `COC(=O)[C@@]12C(=O)C=CC(=O)[C@@H]1C1C(=CC2COC(C)=O)O[C@@H]2OC3(CCCCC3)O[C@H]12` (some centres not stated), the TGI in assay [1] came to 37.3 µM; in assay [2], 23.9 µM; in assay [3], 31.6 µM; in assay [4], 26.4 µM; in assay [5], 18.7 µM; in assay [6], 25.4 µM. In addition, the TGI in [7] was found to be 29.2 µM; in [8], 30.2 µM; in assay [9] it was 6.29 µM.
On to `COc1cc2c3c(n(CCCN)c(=O)c2cc1OC)-c1ccccc1C3=O`, for which the GI50 in assay [1] is 14.3 µM; in assay [2], 1.14 µM; in assay [3] it was 1.45 µM; in assay [4], 4.6 µM; in assay [5], 1 µM; in assay [6] it was 0.282 µM. For the same compound, the GI50 in assay [7] was 0.557 µM; in assay [8], 0.0918 µM; in assay [9], 0.339 µM. Also, the TGI in assay [1] was 35.5 µM; in assay [2], 8.1 µM; in [3], above 100 µM; in assay [4], 11.6 µM; in [6], 2.94 µM; in [7], 3.43 µM. Besides, the TGI in assay [8] worked out at 17.5 µM; in assay [9], 22.7 µM.
Turning to `COc1ccc2oc(=O)cc(C(c3ccc[nH]3)c3ccc[nH]3)c2c1`, the GI50 in assay [1] is 0.616 µM; in assay [2] it was 0.124 µM; in assay [3] it was 0.106 µM; in assay [4] it was 0.123 µM; in assay [5], 0.1 µM; in assay [7] it was 0.11 µM. Also, the results for the GI50 in [8] and in assay [9] were 0.783 µM and 0.348 µM, respectively. The TGI in assay [1] amounted to 13.2 µM; in assay [2], 13.1 µM; in assay [3] it was 17.6 µM; in assay [4], 11.8 µM; in [5] it was 11.5 µM; in assay [6], 13.1 µM. The figures for the TGI in assay [7], in [8] and in assay [9] were 12.9 µM, 17.7 µM and 5.88 µM, respectively.
On to `CN(C)c1ccc2c(=O)c3ccccc3oc2n1`, for which the TGI in assay [1], in assay [2], in assay [3], in assay [4], in assay [5] and in assay [6] was above 100 µM each time. The TGI in assay [8] and in assay [9] was above 100 µM throughout.
